Reference: paper PMC10282898 (Organic & Biomolecular Chemistry, 2023)

Experiments:
[1] = test system: A3 enzymes; details: cited from earlier work
[2] = target: hCDA (Homo sapiens, UniProt P32320); test: Quantitative evaluation of hCDA inhibitors; assay type: biochemical
Chain of hCDA (P32320 whole entry): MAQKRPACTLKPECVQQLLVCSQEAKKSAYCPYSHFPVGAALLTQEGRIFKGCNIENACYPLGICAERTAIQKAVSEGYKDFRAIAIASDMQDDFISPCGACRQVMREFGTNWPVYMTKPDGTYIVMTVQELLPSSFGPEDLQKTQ

| Structure (SMILES) | inhibition of A3 enzymes by free nucleosides [1] | Ki ([2]; hCDA 27 nM, dC substrate, pH 7.4, 25 °C, competitive inhibition assumed) | Km/Ki ([2]; hCDA, Km of dC over Ki of inhibitor) |
| --- | --- | --- | --- |
| O=C1NC(O)CCN1[C@@H]1O[C@H](CO)[C@@H](O)[C@H]1O (stereo partly drawn) [THU, tetrahydrouridine] | did not inhibit | – | – |
| O=C1NCC=CCN1[C@H]1C[C@H](O)[C@@H](CO)O1 [dDiAzep, 8, 1,3-diazepin-2-one 2′-deoxyriboside] | – | 430 ± 80 nM | 512 |
